Experimental data as given in ChEMBL document CHEMBL5291721, “A preclinical secondary pharmacology resource illuminates target-adverse drug reaction associations of marketed drugs” (Nat Commun, 2023).

Experiments:
[1] = molecular target: T1, Alpha-1A adrenergic receptor (Homo sapiens, UniProt P35348)
T1 sequence (P35348 whole entry): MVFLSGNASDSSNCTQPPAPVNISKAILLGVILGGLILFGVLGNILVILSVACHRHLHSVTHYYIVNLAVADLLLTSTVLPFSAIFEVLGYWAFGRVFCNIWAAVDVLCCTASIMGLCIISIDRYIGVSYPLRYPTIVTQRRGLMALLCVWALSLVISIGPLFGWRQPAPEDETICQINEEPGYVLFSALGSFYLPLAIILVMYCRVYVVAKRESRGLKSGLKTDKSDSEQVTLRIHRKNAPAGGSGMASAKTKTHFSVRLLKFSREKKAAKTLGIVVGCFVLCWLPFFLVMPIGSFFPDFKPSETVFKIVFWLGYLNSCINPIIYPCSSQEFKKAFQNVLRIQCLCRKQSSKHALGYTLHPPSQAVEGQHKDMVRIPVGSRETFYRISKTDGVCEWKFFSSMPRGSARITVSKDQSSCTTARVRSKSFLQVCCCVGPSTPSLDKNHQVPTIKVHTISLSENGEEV

[2] = molecular target: T2, Cholecystokinin receptor type A (Homo sapiens, UniProt P32238)
T2 sequence (P32238 whole entry): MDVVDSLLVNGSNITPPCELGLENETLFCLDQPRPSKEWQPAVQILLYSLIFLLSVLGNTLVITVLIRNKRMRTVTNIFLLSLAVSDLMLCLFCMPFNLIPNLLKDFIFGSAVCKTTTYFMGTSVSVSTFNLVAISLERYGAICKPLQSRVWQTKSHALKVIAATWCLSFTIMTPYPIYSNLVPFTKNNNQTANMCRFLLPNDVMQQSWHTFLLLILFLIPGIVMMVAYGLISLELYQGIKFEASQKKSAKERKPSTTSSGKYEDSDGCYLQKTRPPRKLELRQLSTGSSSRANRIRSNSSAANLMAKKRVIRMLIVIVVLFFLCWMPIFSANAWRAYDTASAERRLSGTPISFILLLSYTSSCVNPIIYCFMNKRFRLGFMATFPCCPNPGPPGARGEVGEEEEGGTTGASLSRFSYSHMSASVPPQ

B2 bradykinin receptor = molecular target: T3, B2 bradykinin receptor (Homo sapiens, UniProt P30411)
T3 sequence (P30411 whole entry): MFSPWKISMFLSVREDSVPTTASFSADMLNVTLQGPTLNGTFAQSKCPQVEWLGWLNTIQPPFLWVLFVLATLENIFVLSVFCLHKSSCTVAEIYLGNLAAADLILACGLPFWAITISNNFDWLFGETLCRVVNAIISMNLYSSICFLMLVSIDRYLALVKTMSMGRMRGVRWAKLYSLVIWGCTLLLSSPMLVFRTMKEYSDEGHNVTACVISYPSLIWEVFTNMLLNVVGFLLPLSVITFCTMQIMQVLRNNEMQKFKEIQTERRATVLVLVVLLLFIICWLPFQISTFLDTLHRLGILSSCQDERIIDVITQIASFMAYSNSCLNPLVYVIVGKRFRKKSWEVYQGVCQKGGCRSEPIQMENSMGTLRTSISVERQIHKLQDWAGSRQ

Glucocorticoid receptor = molecular target: T4, Glucocorticoid receptor (Homo sapiens, UniProt P04150)
T4 sequence (P04150 whole entry): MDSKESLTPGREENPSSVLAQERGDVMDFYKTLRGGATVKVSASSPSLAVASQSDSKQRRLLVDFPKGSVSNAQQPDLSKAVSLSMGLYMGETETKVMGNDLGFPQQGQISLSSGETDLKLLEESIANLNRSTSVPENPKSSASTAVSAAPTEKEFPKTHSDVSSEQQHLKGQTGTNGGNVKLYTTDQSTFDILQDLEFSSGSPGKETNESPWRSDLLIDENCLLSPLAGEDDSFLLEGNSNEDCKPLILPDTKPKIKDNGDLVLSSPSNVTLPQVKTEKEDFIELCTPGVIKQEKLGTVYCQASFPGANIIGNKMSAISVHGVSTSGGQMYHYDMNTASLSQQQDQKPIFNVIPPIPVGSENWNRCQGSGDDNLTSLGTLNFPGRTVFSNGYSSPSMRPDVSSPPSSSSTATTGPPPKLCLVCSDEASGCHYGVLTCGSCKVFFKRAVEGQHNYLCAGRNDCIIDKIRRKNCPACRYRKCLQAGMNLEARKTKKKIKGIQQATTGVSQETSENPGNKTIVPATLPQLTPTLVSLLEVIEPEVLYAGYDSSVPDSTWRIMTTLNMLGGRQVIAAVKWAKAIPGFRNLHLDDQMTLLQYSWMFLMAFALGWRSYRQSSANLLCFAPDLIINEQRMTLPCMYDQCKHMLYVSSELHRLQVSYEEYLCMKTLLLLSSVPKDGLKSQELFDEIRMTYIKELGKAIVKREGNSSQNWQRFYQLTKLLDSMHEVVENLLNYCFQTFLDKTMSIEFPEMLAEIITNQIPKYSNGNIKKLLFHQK

Vasopressin V1a receptor = Vasopressin V1a receptor (Homo sapiens, UniProt P37288)
Melanocortin receptor 4 = Melanocortin receptor 4 (Homo sapiens, UniProt P32245)
Note: assay procedure not described here.

Melanocortin receptor 4, sequence (P32245 whole entry): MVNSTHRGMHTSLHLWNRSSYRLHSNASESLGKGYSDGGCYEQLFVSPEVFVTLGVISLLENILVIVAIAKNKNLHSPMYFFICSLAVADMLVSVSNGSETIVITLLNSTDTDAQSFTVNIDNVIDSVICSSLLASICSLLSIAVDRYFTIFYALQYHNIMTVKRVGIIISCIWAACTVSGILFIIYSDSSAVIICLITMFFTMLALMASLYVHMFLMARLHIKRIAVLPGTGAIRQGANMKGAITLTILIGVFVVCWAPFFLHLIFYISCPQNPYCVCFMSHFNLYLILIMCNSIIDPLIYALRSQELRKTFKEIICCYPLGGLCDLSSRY
Vasopressin V1a receptor, sequence (P37288 whole entry): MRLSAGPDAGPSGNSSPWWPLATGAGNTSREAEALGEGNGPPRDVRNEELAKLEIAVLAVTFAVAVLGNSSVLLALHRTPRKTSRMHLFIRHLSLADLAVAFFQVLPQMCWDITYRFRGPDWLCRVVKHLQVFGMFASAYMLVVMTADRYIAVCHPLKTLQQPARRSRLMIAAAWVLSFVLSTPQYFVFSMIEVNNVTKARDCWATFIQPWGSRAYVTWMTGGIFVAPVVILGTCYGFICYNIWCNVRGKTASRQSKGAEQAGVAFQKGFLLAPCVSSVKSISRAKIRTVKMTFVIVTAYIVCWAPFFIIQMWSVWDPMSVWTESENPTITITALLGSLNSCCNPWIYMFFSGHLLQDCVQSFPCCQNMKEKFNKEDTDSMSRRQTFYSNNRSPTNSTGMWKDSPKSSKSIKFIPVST

SMILES	AC50 [1] [µM]	AC50 [2] [µM]	AC50 (B2 bradykinin receptor) [µM]	AC50 (Glucocorticoid receptor) [µM]	AC50 (Vasopressin V1a receptor) [µM]	AC50 (Melanocortin receptor 4) [µM]
O=C(O)c1cccc(-c2noc(-c3ccccc3F)n2)c1	> 10	–	–	–	–	–
NS(=O)(=O)c1cc(-c2nnn[nH]2)c(NCc2cccs2)cc1Cl [AZOSEMIDE]	–	> 30	> 30	> 30	> 30	–
O=C(Cn1ccnc1[N+](=O)[O-])NCc1ccccc1 [BENZNIDAZOLE]	–	> 30	> 30	> 30	> 30	–
C[N+](C)(C)CC(=O)O [BETAINE]	–	> 30	> 30	–	> 30	–
CCCC(=O)N1CCCN(c2nc(N)c3cc(OC)c(OC)cc3n2)CC1 [BUNAZOSIN]	–	> 30	> 30	–	> 30	–
C[N+](C)(C)CCOC(N)=O [CARBAMOYLCHOLINE]	> 10	> 10	> 10	–	> 10	> 10
N[C@@H](CSCC(=O)O)C(=O)O [CARBOCYSTEINE]	–	> 30	> 30	–	> 30	–
CC(C)(N)Cc1ccc(Cl)cc1 [CHLORPHENTERMINE]	> 10	> 30	> 30	–	> 30	> 30
CN(C)[C@@H]1C(O)=C(C(N)=O)C(=O)[C@@]2(O)C(O)=C3C(=O)c4c(O)ccc(Cl)c4[C@@H](O)[C@H]3C[C@@H]12 [DEMECLOCYCLINE]	> 10	> 10	> 10	> 30	> 10	> 10
NS(=O)(=O)c1cc(Cl)c(Cl)c(S(N)(=O)=O)c1 [DICHLORPHENAMIDE]	> 10	> 10	> 10	> 10	> 10	> 10
O=C(Nc1ccccc1)OCC(CN1CCCCC1)OC(=O)Nc1ccccc1 (stereo not drawn) [DIPERODON]	> 10	15	> 30	> 30	> 10	> 30
C=C1C[C@@H]2[C@H](CC[C@]3(C)C(=O)CC[C@@H]23)[C@@]2(C)C=CC(=O)C=C12 [EXEMESTANE]	> 10	> 30	> 30	–	> 30	> 30
CC(C(O)c1ccc(O)cc1)N1CCC(Cc2ccccc2)CC1 (stereo not drawn) [IFENPRODIL]	–	> 30	> 30	> 30	> 30	–
CC(=O)N(CC(O)CO)c1c(I)c(C(=O)NCC(O)CO)c(I)c(C(=O)NCC(O)CO)c1I (stereo not drawn) [IOHEXOL]	> 10	> 30	> 30	–	> 30	> 30
CN(CCCN1c2ccccc2CCc2ccccc21)CC(=O)c1ccc(Cl)cc1 [LOFEPRAMINE]	–	> 30	> 10	> 30	> 30	–
CC(=O)O[C@]1(C(C)=O)CC[C@H]2[C@@H]3C[C@H](C)C4=CC(=O)CC[C@]4(C)[C@H]3CC[C@@]21C [MEDROXYPROGESTERONE ACETATE]	–	> 30	> 30	0.015	> 30	–
CN(C/C=C/c1ccccc1)Cc1cccc2ccccc12 [NAFTIFINE]	2.15	> 30	> 30	> 30	–	> 30
CC(C)NCC1CCc2cc(CO)c([N+](=O)[O-])cc2N1 (stereo not drawn) [OXAMNIQUINE]	> 10	> 10	> 10	> 10	> 10	> 10
CN(C)CCCN1c2ccccc2Sc2ccccc21 [PROMAZINE]	0.0171	> 30	> 30	–	> 10	> 30
O=C(O)CCn1c2c(c3ccccc31)C[C@H](NS(=O)(=O)c1ccc(F)cc1)CC2 [RAMATROBAN]	> 30	24.8	> 30	> 30	> 30	> 30
O=P(O)(O)C(O)(Cc1cccnc1)P(=O)(O)O [RISEDRONIC ACID]	> 10	> 30	> 30	> 30	> 30	> 30
O=C1CCC(N2C(=O)c3ccccc3C2=O)C(=O)N1 (stereo not drawn) [THALIDOMIDE]	> 10	> 30	> 30	> 30	> 10	> 30
CC(=O)N[C@H]1[C@H]([C@H](O)[C@H](O)CO)OC(C(=O)O)=C[C@@H]1N=C(N)N [ZANAMIVIR]	> 30	> 30	> 30	> 30	> 30	> 30
